The source of these data is US20140309192A1, “MODULATORS OF THE G PROTEIN-COUPLED MAS RECEPTOR AND THE TREATMENT OF DISORDERS RELATED THERETO” (ARENA PHARMACEUTICALS, INC., priority 2011, published 2014).

A short description of the data set: Mean arterial blood pressure in anesthetized rats (Example 4). As to conditions: low, medium and high dose i.v.; 25 min after starting dosing. It is filed as in vivo, rat. On the procedure:
Adult rats were anesthetized with sodium pentobarbital (50 mg/kg i.p.) and placed in the supine position on a surgery frame with a heating pad (37° C.) beneath. Rats were tracheostomized and ventilated with a SAR-830 small-animal ventilator (Model 683, Harvard Apparatus) to provide room air at a tidal volume of 2.5 mL/stroke and at a rate of 70 stroke/min. Polyethylene catheters were placed in the right internal carotid artery and the external jugular vein for measurement of mean arterial blood pressure and infusion of drug or vehicle, respectively.
Animals were randomly divided into the following 4 groups: (1-3) low, medium, and high doses of Compound 170 administered by continuous i.v. infusion starting 30 min before coronary artery ligation (n=6 per dose), and (4) 20% HPBCD (vehicle, hydroxypropyl-β-cyclodextrin) administered by continuous i.v. infusion beginning 30 min before coronary artery ligation (n=6). All the rat hearts listed above were used for calculation of myocardial infarct size (see below). Mean arterial blood pressure was measured after stabilization and just prior to drug infusion (baseline) and again following 25 min of drug or vehicle infusion, before coronary artery ligation. […]

SMILES strings stand for the structures.

Regarding `NC(=O)[C@H](CO)NCc1ccc(C(=O)Nc2ccc(Cl)cc2N2CCN(CCC(F)(F)F)CC2)c(F)c1F` [Compound 170, (S)-4-((1-Amino-3-hydroxy-1-oxopropan-2-ylamino)methyl)-N-(4-chloro-2-(4-(3,3,3-trifluoropropyl)piperazin-1-yl)phenyl)-2,3-difluorobenzamide], the “mean arterial blood pressure (MAP) compared to vehicle treatment” value is “no significant effect”.
